Read-outs that look alike come from different tables or passages of the source.
Key:
[1] = test system: Inter-leukin 2 (IL-2) production by activated Human Primary T Lymphocytes; test: Primary T cell assay: inhibition of IL-2 production by activated human primary CD4 positive T lymphocytes; type: cell-based; conditions: Homo sapiens, Table 5, mean IC50 value, CD4 positive T cells activated with anti-CD3/anti-CD28, IL-2 by ELISA, read-out: IC50 (blocking IL-2 production)
Experimental: Summary of Primary T Cell Assay.
Inhibitors of the lck SH2 domain were assayed for their ability to block Inter-leukin 2 (IL-2) production by activated Human Primary T Lymphocytes. Peripheral blood mononuclear cells were isolated from whole blood by centrifugation in ficoll-Pague partitioning medium. CD4 positive cells were purified using negative selection. […] The compounds, at the appropriate dilutions, were added, and the cells were incubated for 60 minutes at 37° C. The CD4 positive T cells were then activated by the addition of anti-CD3 (60 ng/mL), anti CD28 (500 ng/mL) and goat anti mouse IgG coated beads, and incubated overnight at 37° C. The cells were pelleted, and the supernatents assayed for IL-2 by ELISA.
As SH2 domain containing proteins are intracellular, any therapeutic agent must be able to cross biological membranes. […] These characteristics may be quantified by observing inhibition in IL-2 production in human blood CD4 positive T-lymphocytes after T cell receptor and CD28 cross-linking.

[2] = target: T1, p56lck GST-SH2 (lck SH2 domain) (Homo sapiens, UniProt P06239); test: Receptor-ligand equilibrium binding constants by surface plasmon resonance (biosensor), lck SH2 domain
T1 construct: GST (N)

[3] = Table 1, compounds of formula (II)
[4] = Table 2, compounds of formula (III)

T1 sequence (P06239 127-224 limits assumed): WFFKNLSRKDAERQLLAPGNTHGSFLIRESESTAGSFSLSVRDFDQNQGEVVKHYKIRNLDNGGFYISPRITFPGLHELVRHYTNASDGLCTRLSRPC

SMILES | IC50 ([1]; CD4 positive) [µM] | Kd [2, 3] [µM] | also measured
COc1ccc(Cn2ccc(C)c(NC(=O)C(Cc3ccc(C4(C(=O)O)CCCC4)cc3)NC(=O)Cc3ccc4ccccc4c3)c2=O)cc1 (racemic) [Compound 108] | 69 | 2.8 | –
COc1ccc(Cn2ccc(C)c(NC(=O)C(Cc3ccc(C(C)(C)C(=O)O)cc3)NC(=O)Cc3ccc4ccccc4c3)c2=O)cc1C (racemic) [Compound 149, 3-[2'-(R,S)-(2""-Naphthylacetyl)amino-3'-[4"-(1'"-carboxy-1"-methyl)ethyl]benzene]propanoylamino-1-(4-methoxy-3-methylbenzyl)-4-methyl-2-pyridone] | 54 | 3.8 | –
COc1ccc(Cn2ncc(C)c(NC(=O)C(Cc3ccc(C(C)(C)C(=O)O)cc3)NC(=O)Cc3ccc4ccccc4c3)c2=O)cc1 (racemic) [Compound 242, 4-[2'-(R,S)-(2""-Naphthylacetyl)amino-3'-[4"-(1'"-carboxy-1'"-methyl)ethyl]benzene]propanoylamino-2-(4-methoxybenzyl)-5-methyl-3-pyridazinone] | 60 | – | Kd [2, 4]: 0.53 µM
COc1ccc(Cn2ccc(C)c(NC(=O)[C@H](Cc3ccc(C(C)(C)C(=O)O)cc3)NC(=O)Cc3cccc4ccccc34)c2=O)cc1 [Compound 2, 3-[2'-(S)-(1"-Naphthylacetyl)amino-3'-[4'"-(1'"-carboxy-1'"-methyl)ethyl]benzene]propanoylamino-1-(4-methoxybenzyl)-4-methyl-2-pyridone] | 96 | 0.57 | –
COc1ccc(Cn2ccc(C)c(NC(=O)[C@H](Cc3ccc(C(C)(C)C(=O)O)cc3)NC(=O)[C@@H](C)c3ccc4ccccc4c3)c2=O)cc1 [Compound 46] | 58 | 2.3 | –
COc1ccc(Cn2ccc(C)c(NC(=O)[C@H](Cc3ccc(C(C)(C)C(=O)O)cc3)NC(=O)Cc3ccc(C(C)C)cc3)c2=O)cc1 [Compound 94] | 156 | 0.21 | –
COc1ccc(Cn2ccc(C)c(NC(=O)[C@H](Cc3ccc(C(C)(C)C(=O)O)cc3)NC(=O)Cc3ccc4ccccc4c3)c2=O)cc1 [Compound 97] | 113 | 0.14 | –
CCC(CC)(C(=O)O)c1ccc(C[C@H](NC(=O)Cc2ccc3ccccc3c2)C(=O)Nc2c(C)ccn(Cc3ccc(OC)cc3)c2=O)cc1 [Compound 106] | 82 | 0.47 | –
COc1ccc(Cn2ccc(C)c(NC(=O)[C@H](Cc3ccc(C(C)(C)C(=O)O)cc3)NC(=O)C(C)(C)c3ccc4ccccc4c3)c2=O)cc1 [Compound 107] | – | – | IC50 [1]: 48 µM
CCC(C(=O)N[C@@H](Cc1ccc(C(C)(C)C(=O)O)cc1)C(=O)Nc1c(C)ccn(Cc2ccc(OC)cc2)c1=O)c1ccc2ccccc2c1 (stereo partly shown) [Compound 109] | 78 | 0.33 | –
COc1ccc(Cn2ccc(C)c(NC(=O)[C@H](Cc3ccc(C(C)(C)C(=O)O)cc3)NC(=O)Cc3ccc(Br)c4ccccc34)c2=O)cc1 [Compound 111] | 64 | 0.51 | –
COc1ccc(Cn2ccc(C)c(NC(=O)[C@H](Cc3ccc(C(C)(C)C(=O)O)cc3)NC(=O)C(C)c3ccc(CC(C)C)cc3)c2=O)cc1 (stereo partly shown) [Compound 112] | 60 | 1.5 | –
COc1ccc(Cn2ccc(C)c(NC(=O)[C@H](Cc3ccc(C(C)(C)C(=O)O)cc3)NC(=O)Cc3c(C)cc(C)cc3C)c2=O)cc1 [Compound 117] | 108 | 0.37 | –
COc1ccc(Cn2ccc(C)c(NC(=O)[C@H](Cc3ccc(C(C)(C)C(=O)O)cc3)NC(=O)C(C)(C)c3ccc(C(C)C)cc3)c2=O)cc1 [Compound 118] | 61 | 0.61 | –
COc1ccc(Cn2ccc(C)c(NC(=O)[C@H](Cc3ccc(C(C)(C)C(=O)O)cc3)NC(=O)C(C)(C)c3cccc4ccccc34)c2=O)cc1 [Compound 119] | 52 | 3.6 | –
CCC(CC)(C(=O)N[C@@H](Cc1ccc(C(C)(C)C(=O)O)cc1)C(=O)Nc1c(C)ccn(Cc2ccc(OC)cc2)c1=O)c1ccc2ccccc2c1 [Compound 123] | 35 | 0.84 | –
COc1ccc(Cn2ccc(C)c(NC(=O)[C@H](Cc3ccc(C(C)(C)C(=O)O)cc3)NC(=O)C(C)(C)c3ccc(CC(C)C)cc3)c2=O)cc1 [Compound 124] | 42 | 1.5 | –
CCC(CC)(C(=O)NC(Cc1ccc(C2(C(=O)O)CCCC2)cc1)C(=O)Nc1c(C)ccn(Cc2ccc(OC)cc2)c1=O)c1ccc2ccccc2c1 (stereo not shown) [Compound 125] | 29 | > 15 | –
CCCCCCn1ccc(C)c(NC(=O)C(Cc2ccc(C(C)(C)C(=O)O)cc2)NC(=O)Cc2cccs2)c1=O (stereo not shown) [Compound 206] | – | 0.89 | –
CCCCCCn1ccc(C)c(NC(=O)C(Cc2ccc(C(C)(C)C(=O)O)cc2)NC(=O)Cc2ccccc2OC)c1=O (stereo not shown) [Compound 207] | – | 1.7 | –
Cc1ccn(CC2CCOC2)c(=O)c1NC(=O)C(Cc1ccc(C(C)(C)C(=O)O)cc1)NC(=O)Cc1cccc2ccccc12 (stereo not shown) [Compound 210] | – | 15 | –
Cc1ccn(CC2CCOC2)c(=O)c1NC(=O)C(Cc1ccc(C(C)(C)C(=O)O)cc1)NC(=O)Cc1ccc2ccccc2c1 (stereo not shown) [Compound 211] | – | 4.9 | –

SMILES | IC50 ([1]; CD4 positive) [µM] | Kd [2, 3] [µM] | also measured
Cc1ccn(CC2CCOC2)c(=O)c1NC(=O)C(Cc1ccc(C(C)(C)C(=O)O)cc1)NC(=O)C(C)(C)c1ccc2ccccc2c1 (stereo not shown) [Compound 212] | – | 23 | –
COc1ccc(Cn2ccc(CCO)c(NC(=O)C(Cc3ccc(C(C)(C)C(=O)O)cc3)NC(=O)C(C)(C)c3ccc4ccccc4c3)c2=O)cc1 (stereo not shown) [Compound 223] | – | 2.4 | –
Cc1ccn(Cc2ccc(C(=O)C(F)(F)F)cc2)c(=O)c1NC(=O)C(Cc1ccc(C(C)(C)C(=O)O)cc1)NC(=O)C(C)(C)c1ccc2ccccc2c1 (stereo not shown) [Compound 225] | – | 41 | –
Cc1ccn(Cc2ccc(C(=O)C(F)(F)F)cc2)c(=O)c1NC(=O)C(Cc1ccc(C(C)(C)C(=O)O)cc1)NC(=O)Cc1ccc2ccccc2c1 (stereo not shown) [Compound 226] | – | 33 | –
COc1ccc(Cn2cc(Br)c(C)c(NC(=O)[C@H](Cc3ccc(C(C)(C)C(=O)O)cc3)NC(=O)C(C)(C)c3ccc(C(F)(F)F)cc3)c2=O)cc1 [Compound 227] | – | 0.37 | –
COc1ccc(Cn2cc(Br)c(C)c(NC(=O)[C@H](Cc3ccc(C(C)(C)C(=O)O)cc3)NC(=O)Cc3ccc(C(F)(F)F)cc3)c2=O)cc1 [Compound 228] | – | 0.08 | –
COc1ccc(Cn2ccc(C)c(NC(=O)C(Cc3ccc(C(C)(C)C(=O)O)cc3)NC(=O)C(C)(C)c3ccc(N(C)C)cc3)c2=O)cc1 (stereo not shown) [Compound 230] | – | 0.51 | –
COc1ccc(Cn2ccc(C)c(NC(=O)C(Cc3ccc(C(C)(C)C(=O)O)cc3)NC(=O)C(C)(C)c3ccc4ccccc4c3)c2=O)cc1O (stereo not shown) [Compound 232] | – | 33 | –
COc1ccc(Cn2cc(Br)c(C)c(NC(=O)[C@H](Cc3ccc(C(C)(C)C(=O)O)cc3)NC(=O)C(C)(C)c3ccc4ccccc4c3)c2=O)cc1 [Compound 233] | – | 0.42 | –
COc1ccc(Cn2cc(Br)c(C)c(NC(=O)[C@H](Cc3ccc(C(C)(C)C(=O)O)cc3)NC(=O)C(C)(F)c3ccc(C(F)(F)F)cc3)c2=O)cc1 (stereo partly shown) [Compound 234] | – | 1.6 | –
COC1CCC(Cn2ccc(C)c(NC(=O)C(Cc3ccc(C(C)(C)C(=O)O)cc3)NC(=O)C(C)(C)c3ccc4ccccc4c3)c2=O)CC1 (stereo not shown) [Compound 235] | – | 6.2 | –
COCCCCn1ccc(C)c(NC(=O)C(Cc2ccc(C(C)(C)C(=O)O)cc2)NC(=O)C(C)(C)c2ccc3ccccc3c2)c1=O (stereo not shown) [Compound 236] | – | 1.4 | –
COCCCCn1ccc(C)c(NC(=O)C(Cc2ccc(C(C)(C)C(=O)O)cc2)NC(=O)Cc2ccc3ccccc3c2)c1=O (stereo not shown) [Compound 237] | – | 3.1 | –
CCCCCCn1cc(Br)c(C)c(NC(=O)C(Cc2ccc(C(C)(C)C(=O)O)cc2)NC(=O)Cc2ccc3ccccc3c2)c1=O (stereo not shown) [Compound 238] | – | 0.72 | –
COC1CCC(Cn2ccc(C)c(NC(=O)C(Cc3ccc(C(C)(C)C(=O)O)cc3)NC(=O)Cc3ccc4ccccc4c3)c2=O)CC1 (stereo not shown) [Compound 239] | – | 3.2 | –
CCCCCCn1cc(C(=O)OC)c(C)c(NC(=O)C(Cc2ccc(C(C)(C)C(=O)O)cc2)NC(=O)Cc2ccc3ccccc3c2)c1=O (stereo not shown) [Compound 240] | – | 0.74 | –
COc1ccc(Cn2cc(Br)c(C)c(NC(=O)[C@H](Cc3ccc(-n4nnc(C(=O)O)c4C(=O)O)cc3)NC(=O)Cc3ccc4ccccc4c3)c2=O)cc1 [Compound 241, 3-[2'-(S)-(2""-Naphthylacetyl)amino-3'-[4"-(4'",5'"-dicarboxytriazolyl)]benzene]propanoylamino-1-(4-methoxybenzyl)-5-bromo-4-methyl-2-pyridone] | – | 0.06 | –
COc1ccc(Cn2ncc(C)c(NC(=O)[C@H](Cc3ccc(CC(=O)O)cc3)NC(=O)Cc3cccc4ccccc34)c2=O)cc1 [Compound 243] | – | – | Kd [2, 4]: 35 µM
COc1ccc(Cn2nc(C)c(C)c(NC(=O)[C@H](Cc3ccc(CC(=O)O)cc3)NC(=O)Cc3cccc4ccccc34)c2=O)cc1 [Compound 244] | – | – | Kd [2, 4]: 6 µM
COc1ccc(Cn2ncc(C)c(NC(=O)C(Cc3ccc(C(C)(C)C(=O)O)cc3)NC(=O)Cc3ccccc3)c2=O)cc1 (stereo not shown) [Compound 245] | – | – | Kd [2, 4]: 23 µM
COc1ccc(Cn2ncc(C)c(NC(=O)C(Cc3ccc(C(C)(C)C(=O)O)cc3)NC(=O)Cc3ccccc3N)c2=O)cc1 (stereo not shown) [Compound 246] | – | – | Kd [2, 4]: 30 µM
COc1ccc(Cn2ncc(C)c(NC(=O)C(Cc3ccc(C(C)(C)C(=O)O)cc3)NC(=O)Cc3ccccc3[N+](=O)[O-])c2=O)cc1 (stereo not shown) [Compound 247] | – | – | Kd [2, 4]: 5.2 µM
